Patent US20200078379A1, “DEFEROXAMINE DERIVATIVES AS MEDICAMENTS” (BIOTECHNOLOGICKY USTAV AV CR, V.V.I., priority 2017, published 2020)
Read-outs that look alike come from different tables or passages of the source. Each block holds one compound with its values, some of them ahead of it.

Experiments:
[1] = test system: MCF7 cells; experiment: crystal violet assay, cellular viability; type: cell-based, human; conditions: for IC50: MCF7, 48 h, read-out: IC50 cellular viability; for viability at 10 µM: MCF7, 10 μM
Description: (§1) Compound 1 and compound 2 were tested in their efficacy to kill malignant MCF7 cancer cells. Briefly, 10.000 cells per well were seeded in a 96-well plat on one day and the next day selected compounds were added and incubated with the cells for 48 hrs. The cells were then fixed with 4% paraformaldehyde, stained with 0.05% crystal violet, washed with PBS, and solubilized in 1% SDS. The absorbance of the plate at 595 nm was then measured, quantifying the number of viable cells.
(§2) A number of compounds of the present invention were tested for cytotoxicity towards at least some of human breast cancer cell lines (MCF7, MDA-MB-231), human fibroblast (BJ) and murine triple negative breast cancer cell line 4T1 (Table 2).

[2] = test system: murine triple negative breast cancer cell line 4T1; experiment: crystal violet assay, cellular viability; type: cell-based; conditions: Mus musculus, 4T1, 48 hours
Description: as §1, §2

[3] = test system: pancreatic cell line BxPC3; experiment: dose-effect relationship of drugs and mixtures, crystal violet assay, Median-Effect / Combination index; type: cell-based; conditions: for IC50: read-out: Median-Effect Plot parameter IC50
Description: (§3) The potentiation of cytotoxic effect of compound 2 in combination with several cytostatics was evaluated. The dose-effect relationship of individual drugs and mixtures of compound 2 with paclitaxel, cis Pt (cis-platin), doxorubicin and fluorouracil was determined on human mammary gland cancer cell line MDA-MB-231 and pancreatic cell line BxPC3 by means of crystal violet assay. The linearized Median-Effect Plot of dose response line provided both parameters (IC50; trend line m(slope) value) of Median-Effect Equation for individual and combination treatment [ref: Theoretical basis, experimental design, and computerized simulation of synergism and antagonism in drug combination studies; Ting-Chao Chou: Pharmacol Rev. 58(3), 2006, 621-81; Erratum in Pharmacol Rev. 2007; 59(1), 124]:
(§4) Potentiation of combination effect of compound 2 was expressed for concentrations IC50, IC75, IC90, IC95 by calculation of Combination index (CI) applying Combination Index Theorem for mutually exclusive drugs. Overall CI was expressed by means of weighted average of IC50, IC75, IC90, IC95 [ref: Quantitative analysis of dose-effect relationships: the combined effects of multiple drugs or enzyme inhibitors; Ting-Chao Chou, Paul Talalay: Advances in Enzyme Regulation, Volume 22, 1984, Pages 27-55]: […]

[4] = test system: non malignant cells (BJ); experiment: AnnexinV/PI cell death assay; type: cell-based; conditions: ratio Ga:compound 2 1:0, 5 μM gallium salt alone
Description: To confirm such findings by an independent method, cell death-inducing potency (cytotoxic efficacy) of DFO and compound 2 have been tested via annexin V/PI staining commonly used as a measure of apoptotic/necrotic cell death. Briefly, cells were seeded in 12-well plate at 100,000 per well, incubated with the selected compounds for 48 hours, then floating cells were spun, adherent cells trypsinized and spun as well followed by the staining with AnnexinV-FITC and PI probes. Cells were then washed with PBS and measured via Fluorescence Activated Sorter.
We have then analyzed the percentage of death cells by the annexinV/PI staining as described in example 7. We have observed a significant potentiation in cell death induction when gallium was combined with compound 2 (Table 14)

[5] = test system: human mammary gland cancer cell line MDA-MB-231; experiment: dose-effect relationship of drugs and mixtures, crystal violet assay, Median-Effect / Combination index; type: cell-based; conditions: for concentration of the cytostatic at IC75, cytostatic alone: MDA-MB-231; for Median-Effect Plot parameter m (slope) / IC50: MDA-MB-231, crystal violet, 48 hours; for IC50: Chou-Talalay method, read-out: Median-Effect Plot parameter IC50
Description: as §3, §4

[6] = test system: BT474 cells; experiment: crystal violet assay, cellular viability; type: cell-based; conditions: crystal violet
[7] = test system: MDA-MB-231 cells; experiment: crystal violet assay, cellular viability; type: cell-based, human; conditions: for mean percentage of surviving cells compared to non-treated controls: crystal violet
Description: as §1, §2

[8] = Homo sapiens, 48 hrs, crystal violet, read-out: mean percentage of viable cells compared to non-treated controls

- IC50 ([1]; Homo sapiens, crystal violet): 4 µM
Compound: CCCCCCCC[P+](CCCCCCCC)(CCCCCCCC)CCCCCCCCCCNCCCCCN(O)C(=O)CCC(=O)NCCCCCN(O)C(=O)CCC(=O)NCCCCCN(O)C(C)=O [Compound 11, 3,14,25-trihydroxy-42,42-dioctyl-2,10,13,21,24-pentaoxo-3,9,14,20,25,31-hexaaza-42-phosphapentacontane-31,42-diium dichloride]

- IC50 ([1]; Homo sapiens, crystal violet): 0.7 µM
Compound: CCCCCCCCCCCCCCCC(=O)ON(CCCCCNC(=O)CCC(=O)N(CCCCCNC(=O)CCC(=O)N(CCCCCN(CCCCCCCCCC[P+](c1ccccc1)(c1ccccc1)c1ccccc1)CCCCCCCCCC[P+](c1ccccc1)(c1ccccc1)c1ccccc1)OC(=O)CCCCCCCCCCCCCCC)OC(=O)CCCCCCCCCCCCCCC)C(C)=O [Compound 17, (39-acetyl-18,21,29,32,41-pentaoxo-17,28-bis(palmitoyloxy)-11-(10-(triphenylphosphonio)decyl)-40-oxa-11,17,22,28,33,39-hexaazahexapentacontyl)triphenylphosphonium trichloride]

- IC50 [2]: 2.2 µM
Compound: CC(=O)N(O)CCCCCNC(=O)CCC(=O)N(O)CCCCCNC(=O)CCC(=O)N(O)CCCCCN(Cc1cnnn1CCCCCCCCCC[P+](c1ccccc1)(c1ccccc1)c1ccccc1)Cc1cnnn1CCCCCCCCCC[P+](c1ccccc1)(c1ccccc1)c1ccccc1 [Compound 20, Triphenyl(10-(5-(8,19,30-trihydroxy-9,12,20,23,31-pentaoxo-2-((1-(10-(triphenylphosphonio)decyl)-1H-1,2,3-triazol-5-yl)methyl)-2,8,13,19,24,30-hexaazadotriacontyl)-1H-1,2,3-triazol-1-yl)decyl)phosphonium]

- IC50 ([5]; Homo sapiens): 0.0189 µM
Compound: CC(=O)O[C@H]1C(=O)[C@@]2(C)[C@H]([C@H](OC(=O)c3ccccc3)[C@]3(O)C[C@H](OC(=O)[C@H](O)[C@@H](NC(=O)c4ccccc4)c4ccccc4)C(C)=C1C3(C)C)[C@]1(OC(C)=O)CO[C@@H]1C[C@@H]2O [paclitaxel]
- concentration of the cytostatic at IC75, cytostatic alone [5]: 0.1420 µM
- Median-Effect Plot parameter m (slope) [5]: 0.5451

Continued, compound first:

Compound: CC(=O)N(O)CCCCCNC(=O)CCC(=O)N(O)CCCCCNC(=O)CCC(=O)N(O)CCCCCNCCCCCCCCCC[P+](c1ccccc1)(c1ccccc1)c1ccccc1 [Compound 1, Triphenyl(3,14,25-trihydroxy-2,10,13,21,24-pentaoxo-3,9,14,20,25,31-hexaazahentetracontan-41-yl) phosphonium chloride]
- IC50 ([1]; Homo sapiens, crystal violet): 2.2 µM
- viability at 1 µM ([1]; Homo sapiens, MCF7, 1 μM, 48 hrs, crystal violet, read-out: mean percentage of viable cells compared to non-treated controls): 83.3%
- viability at 2 µM ([1]; Homo sapiens, MCF7, 2 μM, 48 hrs, crystal violet, read-out: mean percentage of viable cells compared to non-treated controls): 48.2%
- viability at 5 µM ([1]; Homo sapiens, MCF7, 5 μM, 48 hrs, crystal violet, read-out: mean percentage of viable cells compared to non-treated controls): 15.2%
- viability at 10 µM [1, 8]: 11.9%

Compound: CC(=O)N(O)CCCCCNC(=O)CCC(=O)N(O)CCCCCNC(=O)CCC(=O)N(O)CCCCCN(CCCCOCCCCCCCCCC[P+](c1ccccc1)(c1ccccc1)c1ccccc1)CCCCOCCCCCCCCCC[P+](c1ccccc1)(c1ccccc1)c1ccccc1 [Compound 15, 3-(diphenyl(3,14,25-trihydroxy-2,10,13,21,24-pentaoxo-31-(4-((10-(triphenylphosphonio)decyl)oxy)butyl)-36-oxa-3,9,14,20,25,31-hexaazahexatetracontan-31-ium-46-yl)phosphonio)benzen-1-ide trichloride]
- IC50 ([1]; Homo sapiens, crystal violet): 0.5 µM

Compound: CC(=O)ON(CCCCCNC(=O)CCC(=O)N(CCCCCNC(=O)CCC(=O)N(CCCCCN(CCCCCCCCCC[P+](c1ccccc1)(c1ccccc1)c1ccccc1)CCCCCCCCCC[P+](c1ccccc1)(c1ccccc1)c1ccccc1)OC(C)=O)OC(C)=O)C(C)=O [Compound 16, (15,26-diacetoxy-4-acetyl-2,11,14,22,25-pentaoxo-32-(10-(triphenylphosphonio)decyl)-3-oxa-4,10,15,21,26,32-hexaazadotetracontan-32-ium-42-yl)triphenylphosphonium trichloride]
- IC50 ([1]; Homo sapiens): 0.8 µM

Compound: O=c1[nH]cc(F)c(=O)[nH]1 [Fluorouracil, fluorouracil]
- Median-Effect Plot parameter m (slope) ([3]; 48 hours): 0.33
- IC50 ([3]; 48 hours): 48.3 µM
- IC50 ([3]; Homo sapiens, BXPC-3, 48 h): 48.3 µM

Compound: O=[N+]([O-])[O-].O=[N+]([O-])[O-].O=[N+]([O-])[O-].[Ga+3] [Ga(NO3)2, gallium nitrate, reference compound]
- percentage of death cells by annexinV/PI staining [4]: 14.45 (5.6)

Compound: N.N.[Cl][Pt][Cl] [cis Pt, cis-platin]
- Median-Effect Plot parameter m (slope) ([3]; 48 hours): 1.59
- IC50 ([3]; 48 hours): 4.18 µM
- concentration of the cytostatic at IC75, cytostatic alone [5]: 42.2751 µM
- Median-Effect Plot parameter m (slope) [5]: 1.4574
- IC50 [5]: 21.8 µM

Compound: CC(=O)N(O)CCCCCNC(=O)CCC(=O)N(O)CCCCCNC(=O)CCC(=O)N(O)CCCCCN(CCCCCC[P+](c1ccccc1)(c1ccccc1)c1ccccc1)CCCCCC[P+](c1ccccc1)(c1ccccc1)c1ccccc1.[Cl-].[Cl-] [compound 3, Triphenyl(3,14,25-trihydroxy-2,10,13,21,24-pentaoxo-31-(6-(triphenylphosphonio)hexyl)-3,9,14,20,25,31-hexaazaheptatriacontan-37-yl)phosphonium chloride]
- mean percentage of surviving cells compared to non-treated controls ([6]; BT474, 4 μM): 101.7%
- mean percentage of surviving cells compared to non-treated controls ([6]; BT474, 6 μM): 109.1%
- mean percentage of surviving cells compared to non-treated controls ([6]; BT474, 8 μM): 104.1%
- mean percentage of surviving cells compared to non-treated controls ([6]; BT474, 10 μM): 99.2%
- mean percentage of surviving cells compared to non-treated controls ([6]; BT474, 20 μM): 91.5%
- mean percentage of surviving cells compared to non-treated controls ([6]; BT474, 40 μM): 74.2%
- mean percentage of surviving cells compared to non-treated controls ([6]; BT474, 60 μM): 58.9%
- mean percentage of surviving cells compared to non-treated controls ([6]; BT474, 80 μM): 49.6%
- mean percentage of surviving cells compared to non-treated controls ([6]; BT474, 100 μM): 47.8%
- IC50 ([6]; Homo sapiens, BT-474, BT474, 48 hours, read-out: IC50 cellular viability): 83.5 µM
- IC50 ([7]; Homo sapiens, MDA-MB-231, 48 h, read-out: IC50 cellular viability): 232 µM
- mean percentage of surviving cells compared to non-treated controls ([7]; MDA-MB-231, 4 μM): 97.7%
- mean percentage of surviving cells compared to non-treated controls ([7]; MDA-MB-231, 6 μM): 95.3%
- mean percentage of surviving cells compared to non-treated controls ([7]; MDA-MB-231, 8 μM): 103.1%
- mean percentage of surviving cells compared to non-treated controls ([7]; MDA-MB-231, 10 μM): 97.4%
- mean percentage of surviving cells compared to non-treated controls ([7]; MDA-MB-231, 20 μM): 98.9%
- mean percentage of surviving cells compared to non-treated controls ([7]; MDA-MB-231, 40 μM): 91.3%
- mean percentage of surviving cells compared to non-treated controls ([7]; MDA-MB-231, 60 μM): 86.5%
- mean percentage of surviving cells compared to non-treated controls ([7]; MDA-MB-231, 80 μM): 77.2%
- mean percentage of surviving cells compared to non-treated controls ([7]; MDA-MB-231, 100 μM): 76.0%
- IC50 ([1]; Homo sapiens, crystal violet): 70.4 µM
- viability at 10 µM [1, 8]: 93.9%
- mean percentage of surviving cells compared to non-treated controls ([1]; MCF7, 4 μM, crystal violet): 100.4%
- mean percentage of surviving cells compared to non-treated controls ([1]; MCF7, 6 μM, crystal violet): 99.1%
- mean percentage of surviving cells compared to non-treated controls ([1]; MCF7, 8 μM, crystal violet): 98.2%
- mean percentage of surviving cells compared to non-treated controls ([1]; MCF7, 20 μM, crystal violet): 84.0%
- mean percentage of surviving cells compared to non-treated controls ([1]; MCF7, 40 μM, crystal violet): 74.6%
- mean percentage of surviving cells compared to non-treated controls ([1]; MCF7, 60 μM, crystal violet): 55.2%
- mean percentage of surviving cells compared to non-treated controls ([1]; MCF7, 80 μM, crystal violet): 43.2%
- mean percentage of surviving cells compared to non-treated controls ([1]; MCF7, 100 μM, crystal violet): 37.9%

Compound: COc1cccc2c1C(=O)c1c(O)c3c(c(O)c1C2=O)C[C@@](O)(C(=O)CO)C[C@@H]3O[C@H]1C[C@H](N)[C@H](O)[C@H](C)O1 [doxorubicin]
- IC50 ([5]; Homo sapiens): 0.319 µM
- concentration of the cytostatic at IC75, cytostatic alone [5]: 3.5789 µM
- Median-Effect Plot parameter m (slope) [5]: 0.4543
